Measurements from patent publication US20240238459A1, “Granzyme-Activatable Membrane-Interacting Peptides and Methods of Use” (priority 2021, published 2024).
Peptide text beside a SMILES is read from it. * marks the point of attachment. DOTA = O=C(O)CN1CCN(CC(=O)O)CCN(CC(=O)*)CCN(CC(=O)O)CC1; Ahx = NCCCCCC(=O)O

Tests used:
[1] = PET/CT, biodistribution and autoradiography in mice bearing CT26 tumors treated with vehicle or CPI; conditions: both, mouse, in vivo, iv, total radioactivity
Procedure: (§1) The effect of immunomodulatory therapies on ^64Cu-GRIP B biodistribution was next evaluated in mice bearing subcutaneous CT26 tumors, a mouse colorectal cancer cell line that responds to immunomodulatory therapy. Mice were treated with three intraperitoneal infusions of vehicle or anti-PD1 plus anti-CTLA4 CPIs over 11 days. The radiotracer was injected on day 14, and tumor uptake was monitored over several time points out to 24 hours post injection on PET.
(§2) A biodistribution study at 2 hours post injection was performed to determine relative changes in tracer uptake between tissues in the vehicle and treated groups.
(§3) All animal experiments were approved by the Institutional Animal Care and Use Committee at UCSF. Four to six week old male or female balb/c mice and C57BL6/J mice were purchased from Jackson Laboratory and housed with free access to the water and food. All mice were inoculated with 5×10^6 CT26, MC38, or EMT6 cells in a mixture of media and Matrigel (Corning) (v/v 1:1) subcutaneously into the left shoulder. Anti-mouse PD-1 (CD279) (BE0146) and anti-mouse CTLA-4 (CD152) (BE0164) were purchased from Bio X Cell and stored at 4° C. during the treatment studies. Mice bearing subcutaneous tumors were received anti-mouse CTLA-4 (200 ug) or/and anti-mouse PD-1 (200 ug) and as a combination therapy or PBS as the vehicle on days 5, 8, 11 following the tumor inoculation. Mice were weighed and the tumor volume were measured with calipers on the same day of the treatment. On day 14, all mice were used for PET/CT or BioD studies.
(§4) ^64Cu-L-GRIP B or ^64Cu-D-GRIP B (˜100 μCi/mouse) in 100-150 μL of 10% DMSO and 10% Tween 80 in saline was injected via tail vein. After a period of uptake time, mice were anesthetized with isoflurane (˜2%), and imaged with a microPET/CT scanner (Inveon, Siemens). For static imaging, mice were scanned for 30 min for PET data acquisition and 10 min for CT data acquisition. For the dynamic acquisitions, the mice were anesthetized, positioned on the scanner bed, and injected intravenously with radiotracer. The dynamic acquisition was performed for scanned for 60 min followed by a 10 min CT acquisition.
(§5) At dedicated time points post radiotracer injection, mice were euthanized with CO2(g) asphyxiation, and the blood was collected by direct cardiac puncture. Tissues were harvested, weighed and counted on a gamma counter (Hidex). The amount of radioactivity in the tissues was determined by comparison with a standard of known activity. The samples were decay-corrected and expressed as the percentage of the injected dose/weight of the harvested tissues (% ID/g).
(§6) Tumors or designated tissue were flash frozen in OCT in dry ice. The tissues were sectioned with a microtome (Leica) into slices with 10-20 um thickness and directly mounted on glass slides (VWR). GE Storage Phosphor Screen were exposed by such slides with radioactive tissue. After 10 half-live of copper-64, the screen was developed on a phosphorimager (Typhoon 9400). The images were further analyzed by using Fiji software.

[2] = system: subcutaneous CT26 tumors; test: as above
Procedure: as §1, §2, §3, §4, §5, §6

[3] = system: E. coli; test: PET in E. coli myositis model (live vs heat killed, vs LPS); assay type: in vivo, mouse
Procedure: ^64Cu-GRIP B was also tested to determine whether it can detect granzyme B secreted from activated immune cells attempting to combat bacterial infections. A cohort of mice bearing bilateral deltoid implants of live E. coli or heat killed E. coli was established to test the kinetics of tracer uptake (FIG. 10).
Next, the granzyme B responses to live E. coli versus treatment with a bolus of the endotoxin LPS were compared. Three to four hours after implantation, mice received ^64Cu-GRIP B and were imaged serially (FIG. 12).

[4] = system: MC38; test: Biodistribution and PET/CT in mice bearing MC38 tumors treated with vehicle or CPI; assay type: in vivo, mouse; conditions: MC38 cohort, biodistribution
Procedure: Next, the biodistribution of ^64Cu-GRIP B and ^64Cu-D-GRIP B was compared in mice bearing MC38 (mouse colorectal cancer) or EMT6 (mouse mammary breast carcinoma) xenografts. The mice were treated with vehicle or anti-PD1 and anti-CTLA4 CPIs following the schema used for the CT26 cohort.

[5] = system: CT26 tumors; test: Biodistribution in germline GZMB knockout mice bearing CT26 tumors, vehicle or CPI; assay type: in vivo, mouse
Procedure: Lastly, to confirm that GZMB is responsible for post treatment changes in ^64Cu-GRIP B biodistribution, germline homozygous GZMB knockout mice were inoculated with CT26 tumors and the relative biodistribution of ^64Cu-L-GRIP B in mice was assessed after treatment with vehicle or CPIs.
To confirm this, post treatment changes in tumoral uptake of ^64Cu-GRIP B were assessed for correlation with antitumor effects.

[6] = system: E. coli; test: PET/CT and biodistribution in E. coli myositis in germline GZMB knockout mice; assay type: in vivo, mouse
Procedure: To confirm the radiotracer uptake in the abscess was due to granzyme B, imaging studies were performed in germline GZMB knockout mice. The mice received live and heat killed E. Coli and were injected and imaged following the same protocol for wild type mice.

[7] = system: L. monoctyogenes; test: PET in L. monoctyogenes myositis model; assay type: in vivo, mouse
Description: Neither M. marinum nor the L. monoctyogenes induced ^64Cu-GRIP B uptake in live bacterial abscesses compared to heat killed controls.

[8] = biodistribution at 2 hours post injection

CC[C@H](C)[C@H](NC(=O)[C@H](CCCCN)NC(=O)CNC(=O)[C@H](CC(C)C)NC(=O)[C@H](Cc1ccccc1)NC(=O)[C@H](CCCCN)NC(=O)[C@H](CO)NC(=O)[C@H](Cc1ccccc1)NC(=O)[C@H](Cc1c[nH]c2ccccc12)NC(=O)[C@H](CCC(N)=O)NC(=O)[C@@H](NC(=O)[C@H](Cc1ccccc1)NC(=O)CCCCCNC(=O)CN1CCN(CC(=O)O)CCN(CC(=O)O)CCN(CC(=O)O)CC1)C(C)C)C(=O)N[C@@H](CCC(=O)O)C(=O)N1CCC[C@H]1C(=O)N[C@@H](CC(=O)O)C(=O)N[C@H](C(=O)N[C@@H](CO)C(=O)N[C@@H](CCC(N)=O)C(=O)N[C@H](C(=O)N[C@@H](CCC(N)=O)C(=O)N[C@@H](CC(=O)O)C(=O)N1CCC[C@H]1C(=O)N[C@@H](CC(N)=O)C(=O)N[C@@H](CC(=O)O)C(=O)N[C@@H](CCC(N)=O)C(=O)N[C@@H](Cc1ccc(O)cc1)C(=O)N[C@@H](CCC(=O)O)C(=O)N1CCC[C@H]1C(=O)N[C@@H](Cc1ccccc1)C(=O)O)C(C)C)C(C)C [^64Cu-GRIP B, metal not drawn] ({DOTA-Ahx}-FVQWFSKFLGKIEPDVSQVQDPNDQYEPF-OH)
tissue uptake per volume at 10 min [1]: ~5 %ID/mL | time course of uptake in treated tumors ([2]; CPI (anti-PD1 plus anti-CTLA4) treated, static PET/CT ROI analysis): steadily rose from 0.5 to 2-4 hours post injection | persistence of radioactivity in tumors ([2]; CPI treated, PET): persisted in tumors out to 24 hours post injection | digital autoradiography signal, treated versus control tumor ([2]; CT26 tumor slices, co-aligned with GZMB and CD3): significantly higher | tumoral uptake, CPI versus vehicle treated arm ([2]; PET, 2 hours post injection): significantly higher | induction of radiotracer uptake in tumors, treated compared to control mice [2, 8]: ~50% | tracer uptake within the spleen, treated versus vehicle [2, 8]: significant increase | radiotracer uptake in vehicle tumors by comparison with CPI treated ([2]; vehicle treated mice, dynamic PET): significantly lower and did not change over time | correlation of tumor to blood ratios with percent change in tumor volume ([2]; wild type mice, day 11): significantly correlated | correlation of tumoral uptake with percent change in tumor volume ([2]; wild type mice, day 11 compared to day 0): significantly correlated | uptake in live abscess compared to site of heat killed bacterial implantation ([3]; E. coli, bilateral deltoid implants): significantly higher | time course of tracer uptake in the myositis lesion ([3]; live E. coli deltoid implant): increased out to 5 hours and persisted to at least 24 hours post injection | radiotracer uptake, live E. coli abscess versus bolus of LPS ([3]; tracer three to four hours after implantation, serial imaging): differences in radiotracer uptake were detected from 6-24 hours post injection | tumoral uptake after CPI compared to controls [4]: significant increase | correlation of tumoral uptake or tumor to blood ratio with percent changes in tumor volume ([5]; GZMB knockout mouse background): neither tumoral uptake nor tumor to blood ratio of ^64Cu-GRIP B correlated | post treatment changes in radiotracer uptake in tumors and spleen, CPI compared to vehicle ([5]; germline homozygous GZMB knockout mice, CT26 tumors): No significant post treatment changes | uptake in infected muscle, GZMB knockout compared to wild type ([6]; PET/CT and biodistribution): lower | difference in tracer uptake between normal muscle, live and heat killed E. Coli treated muscle ([6]; knockout strain): negligible difference | normal tissue biodistribution (biodistribution out to 24 hours post injection): highest level of tissue-associated activity in the kidney and liver | dominant mode of clearance (intravenous, C57B16/J mice, dynamic PET): renal | radiotracer uptake compared to normal muscle [7]: significant increase | uptake in live bacterial abscesses compared to heat killed controls [7]: did not impact
